Assay results published in ChEMBL document CHEMBL1140610, “Matrix metalloproteinases (MMPs): chemical-biological functions and (Q)SARs” (Bioorg Med Chem, 2007).

Experiments:
Matrilysin = molecular target: T1, Matrilysin (Homo sapiens, UniProt P09237); conditions: read-out: log(1/IC50) (converted)
T1 sequence (P09237 whole entry): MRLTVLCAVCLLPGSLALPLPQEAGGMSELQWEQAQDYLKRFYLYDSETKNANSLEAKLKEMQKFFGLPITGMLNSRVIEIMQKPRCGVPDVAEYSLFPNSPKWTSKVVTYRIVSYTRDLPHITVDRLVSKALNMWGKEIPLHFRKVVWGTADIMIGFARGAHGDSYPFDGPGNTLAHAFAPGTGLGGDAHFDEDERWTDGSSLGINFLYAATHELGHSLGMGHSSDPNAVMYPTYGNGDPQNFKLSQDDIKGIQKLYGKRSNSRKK

Neutrophil collagenase = Neutrophil collagenase (Homo sapiens, UniProt P22894); conditions: read-out: log(1/IC50) (converted)
Neutrophil collagenase, sequence (P22894 whole entry): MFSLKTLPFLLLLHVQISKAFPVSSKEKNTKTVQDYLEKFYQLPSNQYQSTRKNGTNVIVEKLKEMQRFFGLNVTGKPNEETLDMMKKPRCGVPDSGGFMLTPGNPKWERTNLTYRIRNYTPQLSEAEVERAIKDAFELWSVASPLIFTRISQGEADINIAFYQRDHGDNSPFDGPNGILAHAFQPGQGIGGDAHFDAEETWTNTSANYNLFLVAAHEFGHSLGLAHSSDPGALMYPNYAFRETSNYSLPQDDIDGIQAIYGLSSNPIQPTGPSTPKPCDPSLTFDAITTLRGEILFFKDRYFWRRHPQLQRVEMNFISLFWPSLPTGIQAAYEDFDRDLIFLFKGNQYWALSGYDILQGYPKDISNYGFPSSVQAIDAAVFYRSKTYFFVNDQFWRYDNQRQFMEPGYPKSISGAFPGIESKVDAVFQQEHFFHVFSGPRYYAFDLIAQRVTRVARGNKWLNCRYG

Collagenase 3 = Collagenase 3 (Homo sapiens, UniProt P45452)

Compound	IC50 (Matrilysin) [nM]	IC50 (Neutrophil collagenase) [nM]	IC50 (Collagenase 3) [nM]
CCOc1ccc(S(=O)(=O)N2CC(N3C(=O)CN(C)C3=O)C[C@@H]2C(=O)NO)cc1 (stereo not given in full)	7590		
CCCN1CC(=O)N(C2C[C@H](C(=O)NO)N(S(=O)(=O)c3ccc(OCCOC)cc3)C2)C1=O (stereo not given in full)	11000		
COCCOC(=O)N1CCC(C(C(=O)O)N(Cc2cccnc2)S(=O)(=O)c2ccc(-c3ccc(OC)cc3)cc2)CC1 (stereo not given)		3.24	3.02
COCCOc1ccc(S(=O)(=O)N2CC(N3C(=O)CN(C)C3=O)C[C@@H]2C(=O)NO)cc1 (stereo not given in full)	9120		
COc1ccc(S(=O)(=O)N2CC(N3C(=O)CN(C)C3=O)C[C@@H]2C(=O)NO)cc1 (stereo not given in full)	1820		
CN1CC(=O)N(C2C[C@H](C(=O)NO)N(S(=O)(=O)c3ccc(Oc4ccccc4)cc3)C2)C1=O (stereo not given in full)	309		
COc1ccc(S(=O)(=O)N2CCCN(C(=O)CNOC(=O)C(C)(C)C)CC2C(=O)NO)cc1 (stereo not given)			15.8
CCCCOc1ccc(S(=O)(=O)N2CC(N3C(=O)CN(CCC)C3=O)C[C@@H]2C(=O)NO)cc1 (stereo not given in full)	1200		
CC(C)COc1ccc(S(=O)(=O)N2CC(N3C(=O)CN(C)C3=O)C[C@@H]2C(=O)NO)cc1 (stereo not given in full)	2290		
CCCCOc1ccc(S(=O)(=O)N2CC(N3C(=O)CN(C)C3=O)C[C@@H]2C(=O)NO)cc1 (stereo not given in full)	1580		
CCCCOc1ccc(S(=O)(=O)N2CC(N3C(=O)NC(C)(C)C3=O)C[C@@H]2C(=O)NO)cc1 (stereo not given in full)	447		
CN1CC(=O)N(C2C[C@H](C(=O)NO)N(S(=O)(=O)c3ccc(Oc4ccncc4)cc3)C2)C1=O (stereo not given in full)	7410		
C=CCN1CC(=O)N(C2C[C@H](C(=O)NO)N(S(=O)(=O)c3ccc(OCCOC)cc3)C2)C1=O (stereo not given in full)	11000		
CCCOc1ccc(S(=O)(=O)N2CC(N3C(=O)CN(C)C3=O)C[C@@H]2C(=O)NO)cc1 (stereo not given in full)	2570		
C=CCN1CC(=O)N(C2C[C@H](C(=O)NO)N(S(=O)(=O)c3ccc(OCCC)cc3)C2)C1=O (stereo not given in full)	2570		
COc1ccc(S(=O)(=O)N2CCN(C(=O)C(O)C(C)C)CC2C(=O)NO)cc1 (stereo not given)			1
CCCCOc1ccc(S(=O)(=O)N2CC(N3C(=O)NC(SC)C3=O)C[C@@H]2C(=O)NO)cc1 (stereo not given in full)	851		
COc1ccc(S(=O)(=O)N2CCN(C(=O)c3nnsc3C)CC2C(=O)NO)cc1 (stereo not given)			20.9
C=CCN1CC(=O)N(C2C[C@H](C(=O)NO)N(S(=O)(=O)c3ccc(OCCCC)cc3)C2)C1=O (stereo not given in full)	1000		
